Data published in patent US20260166159A1, “KRAS G12D DEGRADATION AGENT, AND PREPARATION METHOD AND USE THEREFOR” (LEADINGTAC PHARMACEUTICAL (SHAOXING) CO., LTD., priority 2022, published 2026).

Legend:
KRAS-G12D = biological target: T1, KRAS-G12D (Homo sapiens, UniProt P01116, G12D); test: KRAS-G12D degradation assay (Western Blot), A-427 cells; assay type: cell-based; details: A427 cells, 24 h, class symbols; for Dmax: A-427
T1 construct: endogenous in cells; host or cells: A-427 (ATCC), AGS, AsPc-1, Panc 04.03
Summary of the method: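 Western blotting of lysates (5 μg protein) quantified KRAS against a β-actin reference after 24 h exposure to compound at final 0.03–3000 nM in 0.25% DMSO. Cells were A-427, AGS, AsPc-1 or Panc 04.03, all KRAS G12D, at 5×10^5/well. Degradation versus control yielded DC50 and Dmax.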

[1] = biological target: T2, Human KRAS G12D 6His-tagged (Homo sapiens, UniProt P01116, G12D); test: KRAS-G12D/GTP binding assay (HTRF)
T2 construct: purchased PerkinElmer
Description: In this method, the inhibitory effects of the compounds on the binding of KRAS-G12D to GTP were assayed by a homogeneous time-resolved fluorescence (HTRF) technique using a KRAS-G12D/GTP binding assay kit (PerkinElmer).
The experimental procedures were as follows (refer to the kit instructions for detailed test methods): the compounds of the present disclosure were each firstly dissolved in DMSO at a concentration of 20 mM, and then diluted in an equal gradient with a buffer in the kit, so that the final concentrations of the test compounds in the reaction system were in a range of 0.02-5000 nM, and the final concentration of DMSO was 0.5%. 5 μL of each compound was incubated with 5 μL of 1× Human KRAS G12D 6His-tagged (PerkinElmer), 5 μL of 1×6His Eu Cryptate Antibody (PerkinElmer), and 5 μL of 1×GTP Red reagent (PerkinElmer) in a 384-well plate (Greiner) at 25° C. for 1 h. After the incubation was completed, the fluorescence intensity of each well was measured at the excitation wavelength of 337 nm and the emission wavelengths of 620 nm and 665 nm with an EnVision microplate reader (PerkinElmer) in the HTRF mode, and Ratio values were calculated using the formula: Ratio=(665 nm/620 nm)×[…]. The inhibition rates of the compounds at each concentration were calculated by comparing the fluorescence intensity ratio with that of the control group. Then non-linear curve fittings for logarithmic concentration-inhibition rate were performed using the GraphPad Prism 8 analysis software, and the IC50 values of the compounds were obtained (Table 2).

[2] = system: KRAS G12D mutant human gastric cancer cell AGS; test: 3D cell proliferation inhibition assay, AGS; assay type: cell-based; details: 168 h, 7 days, CTG, numeric values
Summary of the method: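 For this 7-day anchorage-independent assay, 5×10^2 cells per well were exposed to 10000–0.026 nM test compound with 0.2% DMSO at 37 °C. ATP-based luminescence (CTG) gave viability, and percent inhibition versus DMSO controls was curve-fitted to obtain IC50.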

T2 sequence (P01116 1-188 isoform P01116-2 G12D): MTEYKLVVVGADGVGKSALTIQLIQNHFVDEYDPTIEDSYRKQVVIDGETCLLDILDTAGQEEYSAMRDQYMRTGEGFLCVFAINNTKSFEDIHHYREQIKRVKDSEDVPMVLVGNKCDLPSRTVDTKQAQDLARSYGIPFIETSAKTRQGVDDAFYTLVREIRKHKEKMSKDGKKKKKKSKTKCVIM
T1 sequence (P01116 1-188 isoform P01116-2 G12D): as above

Which DC50 (KRAS-G12D) does the source give for `CCc1cccc2cc(O)cc(-c3ncc4c(N5CC6CCC(C5)N6)nc(OC[C@@H]5CCCN5CCCC5CCN(C(=O)c6ccc(Cl)c(N7CCC(=O)NC7=O)c6)CC5)nc4c3F)c12` [Example 1, 1-(5-(4-(3-((S)-2-(((4-(3,8-diazabicyclo[3.2.1]octan-3-yl)-7-(8-ethyl-3-hydroxynaphthalen-1-yl)-8-fluoropyrido[4,3-d]pyrimidin-2-yl)oxy)methyl)pyrrolidin-1-yl)propyl)piperidine-1-carbonyl)-2-chlorophenyl)dihydropyrimidine-2,4(1H,3H)-dione] here?
The DC50 was 1000 to 10000 nM.

What about the Dmax (KRAS-G12D) of the same compound?
Its Dmax is 30 to 50%.

What about the IC50 ([1]; class symbols) of the same compound?
The IC50 was 100 to 500 nM.

For `C#Cc1c(F)ccc2cc(O)cc(-c3ncc4c(N5CC6CCC(C5)N6)nc(OC[C@@H]5CCCN5CCCC5CCN(C(=O)c6ccc(Cl)c(N7CCC(=O)NC7=O)c6)CC5)nc4c3F)c12` [Example 9, 1-(5-(4-(3-((S)-2-(((4-(3,8-diazabicyclo[3.2.1]octan-3-yl)-7-(8-ethynyl-7-fluoro-3-hydroxynaphthalen-1-yl)-8-fluoropyrido[4,3-d]pyrimidin-2-yl)oxy)methyl)pyrrolidin-1-yl)propyl)piperidine-1-carbonyl)-2-chlorophenyl)dihydropyrimidine-2,4(1H,3H)-dione], which DC50 (KRAS-G12D) is on record?
Its DC50 is 1000 to 10000 nM.

What about the Dmax (KRAS-G12D) of the same compound?
The Dmax was 30 to 50%.

And the IC50 ([1]; class symbols)?
Its IC50 is 50 to 100 nM.

How did the DC50 (KRAS-G12D) turn out when `C#Cc1c(F)ccc2cc(O)cc(-c3ncc4c(N5CC6CCC(C5)N6)nc(OC[C@@H]5CCCN5CC5CCC6(CC5)CCN(C(=O)c5ccc(Cl)c(N7CCC(=O)NC7=O)c5)CC6)nc4c3F)c12` [Example 12, 1-(5-(9-(((S)-2-(((4-(3,8-diazabicyclo[3.2.1]octan-3-yl)-7-(8-ethynyl-7-fluoro-3-hydroxynaphthalen-1-yl)-8-fluoropyrido[4,3-d]pyrimidin-2-yl)oxy)methyl)pyrrolidin-1-yl)methyl)-3-azaspiro[5.5]undecane-3-carbonyl)-2-chlorophenyl)dihydropyrimidine-2,4(1H,3H)-dione] was run?
Its DC50 is 1000 to 10000 nM.

What about the Dmax (KRAS-G12D) of the same compound?
The Dmax was 50 to 80%.

And the IC50 ([1]; class symbols)?
Its IC50 is 100 to 500 nM.

For `C#Cc1c(F)ccc2cc(O)cc(-c3ncc4c(N5CC6CCC(C5)N6)nc(OCC5(CN6CCC(CCN7CCN(C(=O)c8ccc(Cl)c(N9CCC(=O)NC9=O)c8)CC7)CC6)CC5)nc4c3F)c12` [Example 28, 1-(5-(4-(2-(1-((1-(((4-(3,8-diazabicyclo[3.2.1]octan-3-yl)-7-(8-ethynyl-7-fluoro-3-hydroxynaphthalen-1-yl)-8-fluoropyrido[4,3-d]pyrimidin-2-yl)oxy)methyl)cyclopropyl)methyl)piperidin-4-yl)ethyl)piperazine-1-carbonyl)-2-chlorophenyl)dihydropyrimidine-2,4(1H,3H)-dione], which DC50 (KRAS-G12D) is on record?
The DC50 was 1000 to 10000 nM.

And the Dmax (KRAS-G12D)?
Its Dmax is < 30%.

What about the IC50 ([1]; class symbols) of the same compound?
Its IC50 is ≤ 50 nM.

Which results are given for `CCc1cccc2cc(O)cc(-c3ncc4c(N5CC6CCC(C5)N6)nc(OC[C@@H]5CCCN5CCC5CCN(CCC(=O)N[C@H](C(=O)N6C[C@H](O)C[C@H]6C(=O)NCc6ccc(-c7scnc7C)cc6)C(C)(C)C)CC5)nc4c3F)c12` [Example 34, (2S,4R)-1-((S)-2-(3-(4-(2-((S)-2-(((4-(3,8-diazabicyclo[3.2.1]octan-3-yl)-7-(8-ethyl-3-hydroxynaphthalen-1-yl)-8-fluoropyrido[4,3-d]pyrimidin-2-yl)oxy)methyl)pyrrolidin-1-yl)ethyl)piperidin-1-yl)propanamido)-3,3-dimethylbutanoyl)-4-hydroxy-N-(4-(4-methylthiazol-5-yl)benzyl)pyrrolidine-2-carboxamide]?
DC50 (KRAS-G12D): 1000 to 10000 nM; Dmax (KRAS-G12D): < 30%; IC50 ([1]; class symbols): 100 to 500 nM

What does the source list for `C#Cc1c(F)ccc2cc(O)cc(-c3ncc4c(N5CC6CCC(C5)N6)nc(OC[C@@H]5CCCN5CC5CCN(CCC(=O)N[C@H](C(=O)N6C[C@H](O)C[C@H]6C(=O)NCc6ccc(-c7scnc7C)cc6)C(C)(C)C)CC5)nc4c3F)c12` [Example 35, (2S,4R)-1-((S)-2-(3-(4-(((S)-2-(((4-(3,8-diazabicyclo[3.2.1]octan-3-yl)-7-(8-ethynyl-7-fluoro-3-hydroxynaphthalen-1-yl)-8-fluoropyrido[4,3-d]pyrimidin-2-yl)oxy)methyl)pyrrolidin-1-yl)methyl)piperidin-1-yl)propanamido)-3,3-dimethylbutanoyl)-4-hydroxy-N-(4-(4-methylthiazol-5-yl)benzyl)pyrrolidine-2-carboxamide]?
DC50 (KRAS-G12D): 1000 to 10000 nM; Dmax (KRAS-G12D): < 30%; IC50 ([1]; class symbols): ≤ 50 nM

`C#Cc1c(F)ccc2cc(O)cc(-c3ncc4c(N5CC6CCC(C5)N6)nc(OCC5CCN(CCCCC6CCC7(CC6)CCN(C(=O)c6ccc(Cl)c(N8CCC(=O)NC8=O)c6)CC7)CC5)nc4c3F)c12` [Example 52, 1-(5-(9-(4-(4-(((4-(3,8-diazabicyclo[3.2.1]octan-3-yl)-7-(8-ethynyl-7-fluoro-3-hydroxynaphthalen-1-yl)-8-fluoropyrido[4,3-d]pyrimidin-2-yl)oxy)methyl)piperidin-1-yl)butyl)-3-azaspiro[5.5]undecane-3-carbonyl)-2-chlorophenyl)dihydropyrimidine-2,4(1H,3H)-dione] was tested. Which DC50 (KRAS-G12D) did it give?
The DC50 was 100 to 500 nM.

What about the Dmax (KRAS-G12D) of the same compound?
Its Dmax is 50 to 80%.

And the IC50 ([1]; class symbols)?
Its IC50 is 100 to 500 nM.

What does the source list for `C#Cc1c(F)ccc2cc(O)cc(-c3ncc4c(N5CC6CCC(C5)N6)nc(OCC5(CN6CC7CCC(C6)N7CC6CCC7(CC6)CCN(C(=O)c6ccc(Cl)c(N8CCC(=O)NC8=O)c6)CC7)CC5)nc4c3F)c12` [Example 58, 1-(5-(9-((3-((1-(((4-(3,8-diazabicyclo[3.2.1]octan-3-yl)-7-(8-ethynyl-7-fluoro-3-hydroxynaphthalen-1-yl)-8-fluoropyrido[4,3-d]pyrimidin-2-yl)oxy)methyl)cyclopropyl)methyl)-3,8-diazabicyclo[3.2.1]octan-8-yl)methyl)-3-azaspiro[5.5]undecane-3-carbonyl)-2-chlorophenyl)dihydropyrimidine-2,4(1H,3H)-dione]?
DC50 (KRAS-G12D): ≤ 50 nM; Dmax (KRAS-G12D): 80 to 100%; IC50 ([1]; class symbols): 500 to 1000 nM

With `C#Cc1c(F)ccc2cc(O)cc(-c3ncc4c(N5CC6CCC(C5)N6)nc(OCC5(CN6CCN(C(=O)c7ccc(Cl)c(N8CCC(=O)NC8=O)c7)CC6)CC5)nc4c3F)c12` [Example 69, 1-(5-(4-((1-(((4-(3,8-diazabicyclo[3.2.1]octan-3-yl)-7-(8-ethynyl-7-fluoro-3-hydroxynaphthalen-1-yl)-8-fluoropyrido[4,3-d]pyrimidin-2-yl)oxy)methyl)cyclopropyl)methyl)piperazine-1-carbonyl)-2-chlorophenyl)dihydropyrimidine-2,4(1H,3H)-dione] as the compound, how does the IC50 ([1]; numeric values) read?
The IC50 was 2.4 nM.

With `C#Cc1c(F)ccc2cc(O)cc(-c3ncc4c(N5CC6CCC(C5)N6)nc(OCC5(CN6CCC7(CC6)CCN(C(=O)c6ccc(Cl)c(N8CCC(=O)NC8=O)c6)CC7)CC5)nc4c3F)c12` [Example 85, 1-(5-(9-((1-(((4-(3,8-diazabicyclo[3.2.1]octan-3-yl)-7-(8-ethynyl-7-fluoro-3-hydroxynaphthalen-1-yl)-8-fluoropyrido[4,3-d]pyrimidin-2-yl)oxy)methyl)cyclopropyl)methyl)-3,9-diazaspiro[5.5]undecane-3-carbonyl)-2-chlorophenyl)dihydropyrimidine-2,4(1H,3H)-dione] as the compound, how does the IC50 [2] read?
The IC50 was 50.2 nM.

And the IC50 ([1]; numeric values)?
The IC50 was 1.34 nM.
